pEC50: −log10 of the molar value. Read-outs that look alike come from different tables or passages of the source.
Test system: HT-29 cells
Assay: Cellular RIP1 inhibitory activity: necroptosis of HT-29 cells induced by TNF-α/SMAC mimetic/zVAD-FMK, CellTiter-Glo viability
Assay type: cell-based
Details: Homo sapiens, read-out: EC50 (Cell activity; Necrosis or Necroptosis Inhibitory Activity)
Description: In Table 2, activity is provided as follows: +++=0.1 nM≤EC50<100 nM; ++=100 nM≤EC50K<1000 nM; +=1000 nM≤EC50K<10000 nM.
Compounds 1-67 (denoted as Compound Nos. 1 through 67 in Table 1) of the disclosure were tested for binding and cellular RIP1 inhibitory activity following the experimental procedures described below.
Cell line: HT-29 (ATCC® HTB-38™)
Culture medium: McCOY's 5A, Gibco, Cat No. 16600-082
DMSO: Sigma, Cat No. 67-68-5, 1 L
Assay plate: Corning #3903
Compound dilution plate: Corning #3357
Inducers: TNFα, GenScript, Cat No. Z01001-50,
SmacM, Cat. No., HY-15989, MedChemExpress (MCE)
Z_VAD FMK, TargetMol, T6013
Cell Titer-Glo® Luminescent Cell Viability Assay Kit: Promega, Cat No. G7573
1. HT-29 cells were checked every day to make sure that they were healthy and growing as expected. They were subjected to sub-culturing when they were approximately 80% confluent.
2. The culture medium, McCOY's 5A medium (Gibco, Cat No. 16600-082) with 10% fetal bovine serum or FBS (Gibco, Cat No. 10099-141C), was pre-warmed in a 37° C. water bath for at least 30 min.
3. When the cells had reached a desired level of confluency of 80% in a T75 flask, the medium was aspirated, and the cells were washed with warm phosphate buffered saline or PBS two times.
4. 2-3 ml fresh warm trypsin (Gibco, Cat No. 25200-056) solution was added to the washed cells. The flask with the cells was transferred to a 37° C. incubator.
5. After 5 minutes, the side of the flask was tapped, and the flask was examined under a microscope for detachment of the cells to the flask. If necessary, the cells were kept in the incubator for an additional 5-10 minutes, with occasional tapping, until lifting was complete.
6. The trypsin reaction was neutralized by transferring 6-9 ml cell culture medium to sterile 15 ml conical tubes, and by centrifuging the cell culture at 300×g for 7 minutes to pellet the cells (supernatant decanted).
7. The cells were resuspended in fresh cell culture medium and the cell counting was performed using a hemocytometer.
8. 100 μl of the resuspended cell culture medium containing ˜5,000 cells were transferred into each well of the sterile 96-well cell culture plate (Corning 3903) and cultured overnight at 37° C. with 5% CO2.
Compound Titration and Treatment
1. All test compounds were dissolved in DMSO (Dimethyl sulfoxide) to create a 20 mM stock.
2. 3 μl of each compound 20 mM stock was mixed with 27 μl DMSO, and the compound solution was further diluted at a titration ratio of 1:3 (20 μl compound solution+40 μl DMSO) till the 10 points end.
3. All culture medium was removed from assay plates filled with HT-29 cell cultures. The cells were then washed with 1 PBS, and resuspended in fresh, FBS-free McCOY's 5A medium containing a cocktail of TNF-α (10 ng/ml), a SMAC mimetic compound (6 μM) and Z-VAD-fluoromethylketone or zVAD-FMK (10 μM) to stimulate the HT-29 cells to increase RIP1 kinase levels and necroptosis.
4. 0.5 μL of the diluted compound solution was added to the corresponding 96-well assay plates.
5. The assay plates were incubated for 20 hours at 37° C. with 5% CO2.
1. The CellTiter-Glo® Luminescent Cell Viability Assay was employed to detect the ATP levels of viable HT-29 cells.
2. The CellTiter-Glo® buffer and the lyophilized substrate were equilibrated to room temperature prior to use.
3. The CellTiter-Glo® substrate was resuspended with CellTiter-Glo® buffer, then mixed by gently vortexing to obtain a homogeneous solution.
4. 20 μl the enzyme/substrate mixture was transferred by multi-channel pipetting into 96-well assay plates.
5. The assay plates were placed on an orbital shaker and the contents were shaken for 3 minutes to induce cell lysis.
6. The assay plates were incubated at room temperature for 10 minutes to stabilize the luminescent signal.
7. The luminescence signals were read and recorded with EnVision.
8. The geometric mean EC50 values were calculated from 10 points response dose with duplicates. […]

[1] = HT-29 cells, TNF-α 10 ng/ml, SMAC mimetic 6 μM, zVAD-FMK 10 μM, 20 hours, geometric mean, 10 points, duplicates

Compound	pEC50 [1]	pEC50 (HT-29, 20 h)
CN(C)[C@@H]1CCN(C(=O)c2nc(N3CCN(C(=O)N4N=CC[C@H]4c4cc(F)cc(F)c4)CC3)ncc2F)C1 [Compound 32, ((S)-5-(3,5-difluorophenyl)-4,5-dihydro-1H-pyrazol-1-yl)(4-(4-((R)-3-(dimethylamino)pyrrolidine-1-carbonyl)-5-fluoropyrimidin-2-yl)piperazin-1-yl)methanone]	7.00 to 10.00	
CN(C)C1CN(C(=O)c2nc(N3CCN(C(=O)N4N=CC[C@H]4c4cc(F)cc(F)c4)CC3)ncc2F)C1 [Compound 33, (S)-(5-(3,5-difluorophenyl)-4,5-dihydro-1H-pyrazol-1-yl)(4-(4-(3-(dimethylamino)azetidine-1-carbonyl)-5-fluoropyrimidin-2-yl)piperazin-1-yl)methanone]	7.00 to 10.00	
CN(CC#N)C(=O)c1nc(N2CCN(C(=O)N3N=CC[C@H]3c3cc(F)cc(F)c3)CC2)ncc1F [Compound 34, (S)—N-(cyanomethyl)-2-(4-(5-(3,5-difluorophenyl)-4,5-dihydro-1H-pyrazole-1-carbonyl)piperazin-1-yl)-5-fluoro-N-methylpyrimidine-4-carboxamide]	7.00 to 10.00	
CCNC(=O)c1ccnc(N2CCN(C(=O)N3N=CC[C@H]3c3cc(F)cc(F)c3)CC2)n1 [Compound 35, (S)-2-(4-(5-(3,5-difluorophenyl)-4,5-dihydro-1H-pyrazole-1-carbonyl)piperazin-1-yl)-N-ethylpyrimidine-4-carboxamide]		7.00 to 10.00
O=C(c1ccnc(N2CCN(C(=O)N3N=CC[C@H]3c3cc(F)cc(F)c3)CC2)n1)N1CCC1 [Compound 36, (S)-azetidin-1-yl(2-(4-(5-(3,5-difluorophenyl)-4,5-dihydro-1H-pyrazole-1-carbonyl)piperazin-1-yl)pyrimidin-4-yl)methanone]		7.00 to 10.00
CC(C)OC1CN(C(=O)c2ccnc(N3CCN(C(=O)N4N=CC[C@H]4c4cc(F)cc(F)c4)CC3)n2)C1 [Compound 37, (S)-(5-(3,5-difluorophenyl)-4,5-dihydro-1H-pyrazol-1-yl)(4-(4-(3-isopropoxyazetidine-1-carbonyl)pyrimidin-2-yl)piperazin-1-yl)methanone]	7.00 to 10.00	
NC(=O)c1ccnc(N2CCN(C(=O)N3N=CC[C@H]3c3cc(F)cc(F)c3)CC2)n1 [Compound 38, 2-(4-(5-(3,5-difluorophenyl)-4,5-dihydro-1H-pyrazole-1-carbonyl)piperazin-1-yl)pyrimidine-4-carboxamide]	7.00 to 10.00	
NC(=O)c1cncc(N2CCN(C(=O)N3N=CC[C@H]3c3cc(F)cc(F)c3)CC2)n1 [Compound 39, (S)-6-(4-(5-(3,5-difluorophenyl)-4,5-dihydro-1H-pyrazole-1-carbonyl)piperazin-1-yl)pyrazine-2-carboxamide]	6.00 to 7.00	
NC(=O)c1cc(N2CCN(C(=O)N3N=CC[C@H]3c3cc(F)cc(F)c3)CC2)ncn1 [Compound 40, (S)-6-(4-(5-(3,5-difluorophenyl)-4,5-dihydro-1H-pyrazole-1-carbonyl)piperazin-1-yl)pyrimidine-4-carboxamide]	7.00 to 10.00	
NC(=O)c1ccnc(N2CCN(C(=O)N3N=CC[C@H]3c3ccccc3)CC2)n1 [Compound 41, (S)-2-(4-(5-phenyl-4,5-dihydro-1H-pyrazole-1-carbonyl)piperazin-1-yl)pyrimidine-4-carboxamide]	7.00 to 10.00	
N#Cc1cc(F)cc([C@@H]2CC=NN2C(=O)N2CCN(c3nccc(C(N)=O)n3)CC2)c1 [Compound 42, (S)-2-(4-(5-(3-cyano-5-fluorophenyl)-4,5-dihydro-1H-pyrazole-1-carbonyl)piperazin-1-yl)pyrimidine-4-carboxamide]	7.00 to 10.00	
N#Cc1cncc([C@@H]2CC=NN2C(=O)N2CCN(c3nccc(C(N)=O)n3)CC2)c1 [Compound 43, (S)-2-(4-(5-(5-cyanopyridin-3-yl)-4,5-dihydro-1H-pyrazole-1-carbonyl)piperazin-1-yl)pyrimidine-4-carboxamide]	6.00 to 7.00	
O=C(O)c1ccnc(N2CCN(C(=O)N3N=CC[C@H]3c3cc(F)cc(F)c3)CC2)n1 [Compound 44, (S)-2-(4-(5-(3,5-difluorophenyl)-4,5-dihydro-1H-pyrazole-1-carbonyl)piperazin-1-yl)pyrimidine-4-carboxylic acid]	5.00 to 6.00	
O=C(NCCN1CCOCC1)c1ccnc(N2CCN(C(=O)N3N=CC[C@H]3c3cc(F)cc(F)c3)CC2)n1 [Compound 45, (S)-2-(4-(5-(3,5-difluorophenyl)-4,5-dihydro-1H-pyrazole-1-carbonyl)piperazin-1-yl)-N-(2-morpholinoethyl)pyrimidine-4-carboxamide]	6.00 to 7.00	
CNC(=O)c1ccnc(N2CCN(C(=O)N3N=CC[C@H]3c3cc(F)cc(F)c3)CC2)n1 [Compound 46, (S)-2-(4-(5-(3,5-difluorophenyl)-4,5-dihydro-1H-pyrazole-1-carbonyl)piperazin-1-yl)-N-methylpyrimidine-4-carboxamide]	7.00 to 10.00	
CCOC(=O)c1nc(N2CCN(C(=O)N3N=CC[C@H]3c3cc(F)cc(F)c3)CC2)ncc1F [Compound 47]	7.00 to 10.00	
NC(=O)c1nc(N2CCN(C(=O)N3N=CC[C@H]3c3cc(F)cc(F)c3)CC2)ncc1F [Compound 48, (S)-2-(4-(5-(3,5-difluorophenyl)-4,5-dihydro-1H-pyrazole-1-carbonyl)piperazin-1-yl)-5-fluoropyrimidine-4-carboxamide]	7.00 to 10.00	
COC(=O)c1ccnc(N2CCN(C(=O)N3N=CC[C@H]3c3cc(F)cc(F)c3)CC2)n1 [Compound 49, methyl (S)-2-(4-(5-(3,5-difluorophenyl)-4,5-dihydro-1H-pyrazole-1-carbonyl)piperazin-1-yl)pyrimidine-4-carboxylate]	7.00 to 10.00	
CC1(O)CN(C(=O)c2nc(N3CCN(C(=O)N4N=CC[C@H]4c4cc(F)cc(F)c4)CC3)ncc2F)C1 [Compound 50, (S)-(5-(3,5-difluorophenyl)-4,5-dihydro-1H-pyrazol-1-yl)(4-(5-fluoro-4-(3-hydroxy-3-methylazetidine-1-carbonyl)pyrimidin-2-yl)piperazin-1-yl)methanone]	7.00 to 10.00	
COC1CN(C(=O)c2nc(N3CCN(C(=O)N4N=CC[C@H]4c4cc(F)cc(C#N)c4)CC3)ncc2F)C1 [Compound 51, (S)-3-fluoro-5-(1-(4-(5-fluoro-4-(3-methoxyazetidine-1-carbonyl)pyrimidin-2-yl)piperazine-1-carbonyl)-4,5-dihydro-1H-pyrazol-5-yl)benzonitrile]	7.00 to 10.00	
COC1CN(C(=O)c2nc(N3CCN(C(=O)N4N=CC[C@H]4c4cncc(F)c4)CC3)ncc2F)C1 [Compound 52, (S)-(5-fluoro-2-(4-(5-(5-fluoropyridin-3-yl)-4,5-dihydro-1H-pyrazole-1-carbonyl)piperazin-1-yl)pyrimidin-4-yl)(3-methoxyazetidin-1-yl)methanone]	7.00 to 10.00	
COC1CN(C(=O)c2nc(N3CCN(C(=O)N4N=CC[C@H]4c4cncc(C#N)c4)CC3)ncc2F)C1 [Compound 53, (S)-5-(1-(4-(5-fluoro-4-(3-methoxyazetidine-1-carbonyl)pyrimidin-2-yl)piperazine-1-carbonyl)-4,5-dihydro-1H-pyrazol-5-yl)nicotinonitrile]	7.00 to 10.00	
